Consider 18 compounds from PubChem BioAssay AID270 (DTP/NCI, 2004).

Values joined by “and” are separate entries in the source; they are usually repeats but may differ in a detail not shown here. Identical values can stand only once. Results filed as inconclusive are left out.

In the assay the test system is BDF1 mice, s.c. Lewis lung carcinoma, T/C %. The assay can be described thus: NCI In Vivo Anticancer Drug Screen. Data for tumor model Lewis Lung Carcinoma (subcutaneous) in B6D2F1 (BDF1) mice. The essentials: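 The value reflects a ratio in which the treated cohort's survival time or tumour size is compared against mice receiving only vehicle.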
The mark [1] stands for this setting: endpoint: median survival time, dose: 25.0 mg/kg/injection, schedule: Q02DX009 (ip), vehicle: saline with Tween-80, higher = longer survival.
Setting [2] is: endpoint: median survival time, dose: 50.0 mg/kg/injection, schedule: Q02DX009 (ip), vehicle: saline with Tween-80, higher = longer survival.
The mark [3] stands for this setting: endpoint: median survival time, dose: 6.25 mg/kg/injection, schedule: Q01DX009 (ip), vehicle: Klucel (hydroxypropylcellulose) (HPC), higher = longer survival.
Where [4] appears, read: endpoint: median survival time, dose: 12.5 mg/kg/injection, schedule: Q01DX009 (ip), vehicle: Klucel (hydroxypropylcellulose) (HPC), higher = longer survival.
The mark [5] stands for this setting: endpoint: median survival time, dose: 25.0 mg/kg/injection, schedule: Q01DX009 (ip), vehicle: Klucel (hydroxypropylcellulose) (HPC), higher = longer survival.
Where [6] appears, read: endpoint: median survival time, dose: 32.0 mg/kg/injection, schedule: Q01DX009 (ip), vehicle: saline with Tween-80, higher = longer survival.
The mark [7] stands for this setting: endpoint: mean tumor weight, dose: 50.0 mg/kg/injection, schedule: Q01DX011 (ip), vehicle: saline, higher = larger tumour.
Setting [8] is: endpoint: mean tumor weight, dose: 100.0 mg/kg/injection, schedule: Q01DX011 (ip), vehicle: saline, higher = larger tumour.
Setting [9] is: endpoint: mean tumor weight, dose: 200.0 mg/kg/injection, schedule: Q01DX011 (ip), vehicle: saline, higher = larger tumour.
Where [10] appears, read: endpoint: mean tumor weight, dose: 5.0 mg/kg/injection, schedule: Q01DX011 (ip), vehicle: saline, higher = larger tumour.
The mark [11] stands for this setting: endpoint: mean tumor weight, dose: 125.0 mg/kg/injection, schedule: Q01DX011 (ip), vehicle: saline, higher = larger tumour.
Setting [12] is: endpoint: mean tumor weight, dose: 250.0 mg/kg/injection, schedule: Q01DX011 (ip), vehicle: saline, higher = larger tumour.
Setting [13] is: endpoint: median survival time, dose: 100.0 mg/kg/injection, schedule: Q02DX009 (ip), vehicle: saline with Tween-80, higher = longer survival.

Consider `COC(=O)C(N)CCCCNc1ccc2c(cc1=O)C(NC(C)=O)CCc1cc(OC)c(OC)c(OC)c1-2` (stereo not given), for which the T/C runs as follows: under setting [1], 100 % of control; under setting [2], 94 % of control.

In the case of `S=P(NCCNP(=S)(N1CC1)N1CC1)(N1CC1)N1CC1`, the T/C reads like this: under setting [3], 100 % of control; under setting [4], 102 % of control; under setting [5], 104 % of control.

On to `CCCCCCCCSC1=C(Cl)C(=O)C(OC)=C(OC)C1=O`, for which, for the setting “endpoint: median survival time, dose: 12.5 mg/kg/injection, schedule: Q01DX009 (ip), vehicle: other, higher = longer survival”, the T/C was 92 % of control.

As to `CCN(CC)CCCC(C)Nc1c2ccc(Cl)cc2nc2ccc(OC)cc12` (stereo not given), the T/C (endpoint: median survival time, dose: 8.0 mg/kg/injection, schedule: Q01DX009 (ip), vehicle: saline, higher = longer survival) was 103 % of control; the T/C (endpoint: median survival time, dose: 8.0 mg/kg/injection, schedule: Q01DX009 (ip), vehicle: suspension in saline, higher = longer survival) was 95 % of control; the T/C (endpoint: median survival time, dose: 16.0 mg/kg/injection, schedule: Q01DX009 (ip), vehicle: saline, higher = longer survival) was 101 % of control; the T/C (endpoint: median survival time, dose: 16.0 mg/kg/injection, schedule: Q01DX009 (ip), vehicle: suspension in saline, higher = longer survival) was 113 % of control; the T/C under setting [6] was 163 % of control; the T/C (endpoint: median survival time, dose: 32.0 mg/kg/injection, schedule: Q01DX009 (ip), vehicle: suspension in saline, higher = longer survival) was 104 % of control. In addition, the T/C (endpoint: median survival time, dose: 64.0 mg/kg/injection, schedule: Q01DX009 (ip), vehicle: saline with Tween-80, higher = longer survival) is 112 % of control; the T/C (endpoint: median survival time, dose: 64.0 mg/kg/injection, schedule: Q01DX009 (ip), vehicle: saline, higher = longer survival) was 101 % of control; the T/C (endpoint: median survival time, dose: 64.0 mg/kg/injection, schedule: Q01DX009 (ip), vehicle: suspension in saline, higher = longer survival) is 105 % of control.

With `C=C(C)C12CC(COC(=O)c3ccccc3)C34OC5(OC1C3C1OC1(CO)C(O)C1(O)C(OC(=O)c3ccccc3)C(C)C(C(C)CCCCCCC5O)C14)O2` (stereo not given), the T/C is 107 % of control (endpoint: median survival time, dose: 3.8 micrograms/kg/injection, schedule: Q01DX009 (ip), vehicle: saline, higher = longer survival) and 100 % of control (endpoint: median survival time, dose: 7.5 micrograms/kg/injection, schedule: Q01DX009 (ip), vehicle: saline, higher = longer survival).

Turning to `O=c1ccc2ccccc2o1`, the T/C is 57 % of control (endpoint: mean tumor weight, dose: 110.0 mg/kg/injection, schedule: Q01DX011 (ip), vehicle: carboxymethylcellulose (CMC), higher = larger tumour) and 63 % of control (endpoint: mean tumor weight, dose: 165.0 mg/kg/injection, schedule: Q01DX011 (ip), vehicle: carboxymethylcellulose (CMC), higher = larger tumour).

Regarding `C=CCNC(=O)NCC=C`, the T/C is, setting by setting: (endpoint: mean tumor weight, dose: 25.0 mg/kg/injection, schedule: Q01DX011 (ip), vehicle: saline, higher = larger tumour) 96 % of control; under setting [7], 28 % of control; under setting [8], 16 % of control; under setting [9], 43 % of control.

As for `CN(CCCOS(C)(=O)=O)CCCOS(C)(=O)=O`, the T/C runs as follows: under setting [10], 85 % of control; (endpoint: mean tumor weight, dose: 10.0 mg/kg/injection, schedule: Q01DX011 (ip), vehicle: saline, higher = larger tumour) 78 % of control; (endpoint: mean tumor weight, dose: 20.0 mg/kg/injection, schedule: Q01DX011 (ip), vehicle: saline, higher = larger tumour) 49 % of control; (endpoint: mean tumor weight, dose: 40.0 mg/kg/injection, schedule: Q01DX011 (ip), vehicle: saline, higher = larger tumour) 59 % of control.

For `C=C[C@]1(C)C=C2CC[C@@H]3[C@](C)(CCC[C@@]3(C)C(=O)O)[C@H]2CC1`, the T/C (endpoint: mean tumor weight, dose: 7.8 mg/kg/injection, schedule: Q01DX011 (ip), vehicle: saline, higher = larger tumour) was 73 % of control; the T/C (endpoint: mean tumor weight, dose: 15.6 mg/kg/injection, schedule: Q01DX011 (ip), vehicle: saline, higher = larger tumour) was 55 % of control; the T/C (endpoint: mean tumor weight, dose: 31.3 mg/kg/injection, schedule: Q01DX011 (ip), vehicle: saline, higher = larger tumour) was 43 % of control; the T/C (endpoint: mean tumor weight, dose: 62.5 mg/kg/injection, schedule: Q01DX011 (ip), vehicle: saline, higher = larger tumour) is 98 % of control and 102 % of control; the T/C under setting [11] is 102 % of control; the T/C under setting [12] was 82 % of control.

Regarding `O=C(NP(=O)(N1CC1)N1CC1)c1cc(I)ccc1I`, the T/C is 110 % of control (endpoint: median survival time, dose: 1.0 mg/kg/injection, schedule: Q02DX009 (ip), vehicle: saline with Tween-80, higher = longer survival); 112 % of control (endpoint: median survival time, dose: 2.0 mg/kg/injection, schedule: Q02DX009 (ip), vehicle: saline with Tween-80, higher = longer survival); 117 % of control (endpoint: median survival time, dose: 4.0 mg/kg/injection, schedule: Q02DX009 (ip), vehicle: saline with Tween-80, higher = longer survival); 117 % of control (endpoint: median survival time, dose: 8.0 mg/kg/injection, schedule: Q02DX009 (ip), vehicle: saline with Tween-80, higher = longer survival); 106 % of control (endpoint: median survival time, dose: 16.0 mg/kg/injection, schedule: Q02DX009 (ip), vehicle: saline with Tween-80, higher = longer survival); 102 % of control (endpoint: median survival time, dose: 32.0 mg/kg/injection, schedule: Q02DX009 (ip), vehicle: saline with Tween-80, higher = longer survival). The T/C (endpoint: median survival time, dose: 64.0 mg/kg/injection, schedule: Q02DX009 (ip), vehicle: saline with Tween-80, higher = longer survival) is 98 % of control.

For `CCOC(=O)NP(=O)(N1CC1)N1CC1`, the T/C is 61 % of control and 75 % of control (endpoint: mean tumor weight, dose: 2.5 mg/kg/injection, schedule: Q01DX011 (ip), vehicle: saline, higher = larger tumour); 35 % of control and 56 % of control under setting [10].

`Nc1ccccc1N`: the T/C by setting is: under setting [1], 112 % of control; under setting [2], 118 % of control; under setting [13], 97 % of control; (endpoint: median survival time, dose: 200.0 mg/kg/injection, schedule: Q02DX009 (ip), vehicle: saline with Tween-80, higher = longer survival) 111 % of control.

Consider `C=CCCCCCCCCC(=O)O`, for which the T/C was 92 % of control under setting [7]; 91 % of control under setting [8]; 56 % of control under setting [9]; 84 % of control (endpoint: mean tumor weight, dose: 400.0 mg/kg/injection, schedule: Q01DX011 (ip), vehicle: saline, higher = larger tumour).

For `OCC(Br)CBr` (stereo not given), the T/C (endpoint: mean tumor weight, dose: 37.0 mg/kg/injection, schedule: Q01DX011 (ip), vehicle: other, higher = larger tumour) was 97 % of control and the T/C (endpoint: mean tumor weight, dose: 55.0 mg/kg/injection, schedule: Q01DX011 (ip), vehicle: other, higher = larger tumour) was 66 % of control.

`CC1=C(/C=C/C(C)=C/C=C/C(C)=C/C(=O)O)C(C)(C)CCC1`: the T/C (endpoint: median survival time, dose: 6.25 mg/kg/injection, schedule: Q01DX005 (ip), vehicle: saline with Tween-80, higher = longer survival) was 109 % of control; the T/C (endpoint: median survival time, dose: 8.0 mg/kg/injection, schedule: Q01DX009 (ip), vehicle: saline with Tween-80, higher = longer survival) is 102 % of control; the T/C (endpoint: median survival time, dose: 16.0 mg/kg/injection, schedule: Q01DX009 (ip), vehicle: saline with Tween-80, higher = longer survival) was 93 % of control; the T/C under setting [6] was 93 % of control.

Regarding `Clc1[nH]nc2ccccc12`, the T/C runs as follows: under setting [11], 80 % of control and 85 % of control; under setting [12], 45 % of control and 67 % of control.

With `COc1cccc2c1C(=O)c1c(O)c3c(c(O)c1C2=O)C[C@@](O)(C(C)=O)C[C@@H]3OC1CC(N)C(O)C(C)O1` (stereo not given in full), the T/C by setting is: (endpoint: mean tumor weight, dose: 0.6 mg/kg/injection, schedule: Q01DX011 (ip), vehicle: saline, higher = larger tumour) 85 % of control; (endpoint: mean tumor weight, dose: 1.0 mg/kg/injection, schedule: Q01DX011 (sc), vehicle: steriod suspending solution, higher = larger tumour) 116 % of control; (endpoint: mean tumor weight, dose: 1.2 mg/kg/injection, schedule: Q01DX011 (ip), vehicle: saline, higher = larger tumour) 89 % of control; (endpoint: mean tumor weight, dose: 1.8 mg/kg/injection, schedule: Q01DX011 (ip), vehicle: saline, higher = larger tumour) 69 % of control and 81 % of control; (endpoint: mean tumor weight, dose: 2.7 mg/kg/injection, schedule: Q01DX011 (ip), vehicle: saline, higher = larger tumour) 56 % of control; (endpoint: mean tumor weight, dose: 5.0 mg/kg/injection, schedule: Q01DX011 (sc), vehicle: steriod suspending solution, higher = larger tumour) 81 % of control. Besides, the T/C reads like this: (endpoint: median survival time, dose: 0.12 mg/kg/injection, schedule: Q01DX009 (ip), vehicle: saline, higher = longer survival) 101 % of control and 104 % of control and 110 % of control; (endpoint: median survival time, dose: 125.0 micrograms/kg/injection, schedule: Q01DX009 (ip), vehicle: saline, higher = longer survival) 92 % of control; (endpoint: median survival time, dose: 500.0 micrograms/kg/injection, schedule: Q01DX009 (ip), vehicle: saline, higher = longer survival) 100 % of control; (endpoint: median survival time, dose: 1000.0 micrograms/kg/injection, schedule: Q01DX009 (ip), vehicle: saline, higher = longer survival) 90 % of control; (endpoint: median survival time, dose: 2000.0 micrograms/kg/injection, schedule: Q01DX009 (ip), vehicle: saline, higher = longer survival) 97 % of control.

Turning to `CCC(c1ccc(OC(=O)Cc2ccc(N(CCCl)CCCl)cc2)cc1)C(CC)c1ccc(OC(=O)Cc2ccc(N(CCCl)CCCl)cc2)cc1` (stereo not given), the T/C was 102 % of control under setting [3]; 104 % of control under setting [4]; 104 % of control under setting [5]; 86 % of control under setting [1]; 88 % of control under setting [2]; 94 % of control under setting [13].
